pEC50: −log10 of the molar value. Bridge positions count the residues as written; N and C are the ends. Square brackets hold non-standard residues; d marks the D form. Peptide text beside a SMILES is read from it. Hyp = O=C(O)[C@@H]1C[C@@H](O)CN1; Cit = NC(=O)NCCC[C@H](N)C(=O)O

The target of data set [1] is T1, hAMY3 receptor (Homo sapiens, UniProt O60896+P30988).
T1 sequence (P30988 25-474): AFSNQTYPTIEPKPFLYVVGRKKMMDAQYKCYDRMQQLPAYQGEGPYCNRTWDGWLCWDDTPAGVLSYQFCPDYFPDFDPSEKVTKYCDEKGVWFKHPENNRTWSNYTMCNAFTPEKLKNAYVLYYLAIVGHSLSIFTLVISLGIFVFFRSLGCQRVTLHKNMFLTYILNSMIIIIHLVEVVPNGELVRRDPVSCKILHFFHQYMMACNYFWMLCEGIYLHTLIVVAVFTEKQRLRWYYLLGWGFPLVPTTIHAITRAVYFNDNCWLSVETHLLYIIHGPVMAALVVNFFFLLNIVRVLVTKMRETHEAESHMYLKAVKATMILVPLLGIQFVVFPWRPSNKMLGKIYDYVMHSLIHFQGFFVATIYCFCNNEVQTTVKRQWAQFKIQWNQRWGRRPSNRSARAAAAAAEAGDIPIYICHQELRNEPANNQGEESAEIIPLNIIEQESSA
T1 sequence (O60896 24-148 partner): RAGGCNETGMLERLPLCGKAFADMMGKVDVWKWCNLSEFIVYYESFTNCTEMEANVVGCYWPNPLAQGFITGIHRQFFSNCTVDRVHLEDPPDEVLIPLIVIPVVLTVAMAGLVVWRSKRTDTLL
The data set can be described thus: cAMP assay for in vitro receptor activation, hAMY3-R. The class given is cell-based. The conditions noted are these: cAMP assay, hAMY3 receptor; read-out: hAMY3R EC50. The method in brief:
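Monoclonal cell line stably overexpressing human AMY3 receptor, 2000 cells/well in DPBS with 0.05% casein and 0.5 mM IBMX. Stimulated 30 min at room temperature with graded compound doses, human amylin as positive control. cAMP accumulation read by TR-FRET after one hour.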

Data set [2] has as its target hAM1 receptor (Homo sapiens, UniProt O60895+Q16602). The data set can be described thus: cAMP assay for in vitro receptor activation, hAM1-R. It counts as cell-based. The settings on record: cAMP assay, hAM1 receptor; read-out: hAM1R EC50. A digest of the protocol: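 cAMP accumulation was measured in a monoclonal cell line stably overexpressing the hAM1 receptor. Frozen aliquots were thawed and plated at 8000 cells/well in DPBS containing 0.05% casein and 0.5 mM IBMX.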
In general terms: cAMP levels reflect the balance of adenylyl cyclase and phosphodiesterase activity.

A short description of data set [3]: Physical stability of peptide analogues (Thioflavin T fibrillation). The settings on record: maximum ThT signal normalized between hAMY maximum and buffer background; 40° C., shaking, four days; pH 7 per table title. It counts as physicochemical. A digest of the protocol:
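Samples are stressed at 40 °C for four days, being shaken at 700 rpm before each 10-min fluorescence reading of 4 μM Thioflavin T. Buffers were pH 4 acetate or pH 7 phosphate. Reported values are smoothed maximum ThT signals as a percentage of the hAMY-to-background range.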

hAM1 receptor, sequence (Q16602 23-461): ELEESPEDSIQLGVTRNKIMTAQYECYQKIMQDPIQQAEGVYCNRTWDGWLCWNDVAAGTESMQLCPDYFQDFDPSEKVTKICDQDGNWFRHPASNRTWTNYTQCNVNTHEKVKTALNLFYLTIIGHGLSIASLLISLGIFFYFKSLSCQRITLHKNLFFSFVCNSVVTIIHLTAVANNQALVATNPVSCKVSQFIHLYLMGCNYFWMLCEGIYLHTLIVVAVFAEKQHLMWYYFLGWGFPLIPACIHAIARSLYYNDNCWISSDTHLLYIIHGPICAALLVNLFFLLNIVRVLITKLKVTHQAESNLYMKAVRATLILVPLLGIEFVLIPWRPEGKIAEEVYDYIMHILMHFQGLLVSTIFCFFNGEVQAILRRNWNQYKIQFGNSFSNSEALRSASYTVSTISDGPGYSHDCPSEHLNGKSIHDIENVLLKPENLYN
hAM1 receptor, sequence (O60895 43-175 partner): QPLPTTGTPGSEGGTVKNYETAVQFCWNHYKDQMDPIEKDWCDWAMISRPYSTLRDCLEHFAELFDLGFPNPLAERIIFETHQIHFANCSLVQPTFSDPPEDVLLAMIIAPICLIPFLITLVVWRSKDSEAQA

By pEC50 is commonly meant the negative decadic logarithm of the EC50, by convention in mol/L. Regarding `CC[C@H](C)[C@H](NC(=O)[C@H](CCC(N)=O)NC(=O)[C@H](Cc1c[nH]cn1)NC(=O)[C@H](C)NC(=O)[C@H](CC(C)C)NC(=O)[C@H](CCCNC(N)=O)NC(=O)[C@H](CCC(N)=O)NC(=O)[C@@H](NC(=O)[C@@H](NC(=O)[C@@H]1CSSC[C@H](NC(=O)CN)C(=O)N[C@@H](CCCNC(=N)N)C(=O)N[C@@H](Cc2ccccc2)C(=O)NCC(=O)N[C@@H]([C@@H](C)O)C(=O)N1)[C@@H](C)O)C(C)C)C(=O)N[C@@H](Cc1ccc(O)cc1)C(=O)N[C@@H](CCC(N)=O)C(=O)N[C@@H](Cc1ccccc1)C(=O)N[C@H](C(=O)N[C@@H](CC(=O)O)C(=O)N[C@@H](CCCCN)C(=O)N[C@@H](CC(=O)O)C(=O)N[C@@H](CCCCN)C(=O)N[C@@H](CC(=O)O)C(=O)N[C@@H](CC(N)=O)C(=O)N[C@H](C(=O)N[C@@H](C)C(=O)N1CCC[C@H]1C(=O)N[C@@H](CCCNC(=N)N)C(=O)N[C@H](C(=O)N[C@@H](CCCCN)C(=O)N[C@H](C(=O)N[C@@H](CO)C(=O)N1CCC[C@H]1C(=O)N[C@@H](CCC(N)=O)C(=O)NCC(=O)N1C[C@H](O)C[C@H]1C(N)=O)[C@@H](C)CC)[C@@H](C)O)C(C)C)[C@@H](C)O` [compound 294] (H-GCRFGTCTVQ[Cit]LAHQIYQFTDKDKDNVAPRTKISPQG[Hyp]-NH2; disulfide 2-7), the pEC50 in data set [1] is 10.35; in data set [2], less than 5.30. The “Max ThT signal (%)” value in data set [3] is 16.850%.

As to `CC[C@H](C)[C@H](NC(=O)[C@H](CC(N)=O)NC(=O)[C@H](CO)NC(=O)[C@H](CCCNC(=N)N)NC(=O)[C@@H]1CCCN1C(=O)[C@H](C)NC(=O)[C@@H](NC(=O)[C@H](CC(N)=O)NC(=O)[C@H](CC(=O)O)NC(=O)[C@H](CCCCN)NC(=O)[C@H](CC(=O)O)NC(=O)[C@H](CCCCN)NC(=O)[C@H](CC(=O)O)NC(=O)[C@@H](NC(=O)[C@H](Cc1ccccc1)NC(=O)[C@H](CCC(N)=O)NC(=O)[C@H](Cc1ccc(O)cc1)NC(=O)[C@@H](NC(=O)[C@H](CCC(N)=O)NC(=O)[C@H](Cc1c[nH]cn1)NC(=O)[C@H](C)NC(=O)[C@H](CC(C)C)NC(=O)[C@H](CCCNC(N)=O)NC(=O)[C@H](CCC(N)=O)NC(=O)[C@@H](NC(=O)[C@@H](NC(=O)[C@@H]1CSSC[C@H](NC(=O)CN)C(=O)N[C@@H](CCCNC(=N)N)C(=O)N[C@@H]([C@@H](C)O)C(=O)NCC(=O)N[C@@H]([C@@H](C)O)C(=O)N1)[C@@H](C)O)C(C)C)[C@@H](C)CC)[C@@H](C)O)C(C)C)C(=O)NCC(=O)N1CCC[C@H]1C(=O)N[C@@H](CC(N)=O)C(=O)NCC(=O)N1C[C@H](O)C[C@H]1C(N)=O` [compound 297] (H-GCRTGTCTVQ[Cit]LAHQIYQFTDKDKDNVAPRSNIGPNG[Hyp]-NH2; disulfide 2-7; N-terminus assumed), the pEC50 in data set [1] is 10.59; in data set [2], less than 5.30. Moreover, the “Max ThT signal (%)” value in data set [3] is recorded as 27.500%.

Take `CC[C@H](C)[C@H](NC(=O)[C@H](CCC(N)=O)NC(=O)[C@H](Cc1c[nH]cn1)NC(=O)[C@H](C)NC(=O)[C@H](CC(C)C)NC(=O)[C@H](CCCNC(N)=O)NC(=O)[C@H](CCC(N)=O)NC(=O)[C@@H](NC(=O)[C@@H](NC(=O)[C@@H]1CSSC[C@H](NC(=O)CN)C(=O)N[C@@H](CCCNC(=N)N)C(=O)N[C@@H](Cc2ccccc2)C(=O)NCC(=O)N[C@@H]([C@@H](C)O)C(=O)N1)[C@@H](C)O)C(C)C)C(=O)N[C@@H](Cc1ccc(O)cc1)C(=O)N[C@@H](CCC(N)=O)C(=O)N[C@@H](Cc1ccccc1)C(=O)N[C@H](C(=O)N[C@@H](CC(=O)O)C(=O)N[C@@H](CCCCN)C(=O)N[C@@H](CC(=O)O)C(=O)N[C@@H](CCCCN)C(=O)N[C@@H](CC(=O)O)C(=O)N[C@@H](CC(N)=O)C(=O)N[C@H](C(=O)N[C@@H](C)C(=O)N1CCC[C@H]1C(=O)N[C@@H](CCCNC(=N)N)C(=O)N[C@@H](CO)C(=O)N[C@@H](CC(N)=O)C(=O)N[C@H](C(=O)N[C@@H](CO)C(=O)N1CCC[C@H]1C(=O)N[C@@H](CCC(N)=O)C(=O)NCC(=O)N1C[C@H](O)C[C@H]1C(N)=O)[C@@H](C)CC)C(C)C)[C@@H](C)O` [compound 300] (H-GCRFGTCTVQ[Cit]LAHQIYQFTDKDKDNVAPRSNISPQG[Hyp]-NH2; disulfide 2-7; N-terminus assumed): the pEC50 in data set [1] is 10.12; in data set [2], less than 5.30. Also, in data set [3], the “Max ThT signal (%)” value was determined as 17.850%.

As for `CC[C@H](C)[C@H](NC(=O)[C@H](CCC(N)=O)NC(=O)[C@H](Cc1c[nH]cn1)NC(=O)[C@H](C)NC(=O)[C@H](CC(C)C)NC(=O)[C@H](CCCNC(N)=O)NC(=O)[C@H](CCC(N)=O)NC(=O)[C@@H](NC(=O)[C@@H](NC(=O)[C@@H]1CSSC[C@H](NC(=O)CN)C(=O)N[C@@H](CCCNC(=N)N)C(=O)N[C@@H](Cc2ccccc2)C(=O)NCC(=O)N[C@@H]([C@@H](C)O)C(=O)N1)[C@@H](C)O)C(C)C)C(=O)N[C@@H](Cc1ccc(O)cc1)C(=O)N[C@@H](CCC(N)=O)C(=O)N[C@@H](Cc1ccccc1)C(=O)N[C@H](C(=O)N[C@@H](CC(=O)O)C(=O)N[C@@H](CCCCN)C(=O)N[C@@H](CC(=O)O)C(=O)N[C@@H](CCCCN)C(=O)N[C@@H](CC(=O)O)C(=O)N[C@@H](CC(N)=O)C(=O)N[C@H](C(=O)N[C@@H](C)C(=O)N1CCC[C@H]1C(=O)N[C@@H](CCCNC(=N)N)C(=O)N[C@@H](CO)C(=O)N[C@@H](CCCCN)C(=O)N[C@H](C(=O)N[C@@H](CO)C(=O)N1CCC[C@H]1C(=O)N[C@@H](CCC(N)=O)C(=O)NCC(=O)N1C[C@H](O)C[C@H]1C(N)=O)C(C)C)C(C)C)[C@@H](C)O` [compound 305] (H-GCRFGTCTVQ[Cit]LAHQIYQFTDKDKDNVAPRSKVSPQG[Hyp]-NH2; disulfide 2-7), the pEC50 was 10.07 in data set [1] and less than 5.30 in data set [2]. Also, the “Max ThT signal (%)” value in data set [3] stood at 24.600%.

Consider `CC[C@H](C)[C@H](NC(=O)[C@H](CCC(N)=O)NC(=O)[C@H](CC(=O)O)NC(=O)[C@H](C)NC(=O)[C@H](CC(C)C)NC(=O)[C@H](Cc1c[nH]c2ccccc12)NC(=O)[C@H](C)NC(=O)[C@@H](NC(=O)[C@@H](NC(=O)[C@@H]1CSSC[C@H](NC(=O)[C@@H](N)CCCCN)C(=O)N[C@@H](CC(N)=O)C(=O)N[C@@H]([C@@H](C)O)C(=O)N[C@@H](CO)C(=O)N[C@@H]([C@@H](C)O)C(=O)N1)[C@@H](C)O)C(C)C)C(=O)N[C@H](C(=O)N[C@@H](CCC(N)=O)C(=O)N[C@@H](Cc1ccccc1)C(=O)N[C@@H](CO)C(=O)N[C@@H](CC(N)=O)C(=O)N[C@@H](CCCCN)C(=O)N[C@@H](CC(=O)O)C(=O)N[C@@H](CCCCN)C(=O)N[C@@H](C)C(=O)N[C@@H](CCC(N)=O)C(=O)N[C@H](C(=O)N[C@@H](CO)C(=O)N1CCC[C@H]1C(=O)N1CCC[C@H]1C(=O)N[C@H](C(=O)N[C@@H](CCC(=O)O)C(=O)N[C@H](C(=O)NCC(=O)N1CCC[C@H]1C(=O)N[C@@H](CC(N)=O)C(=O)N[C@@H](CO)C(=O)N1C[C@H](O)C[C@H]1C(N)=O)C(C)C)[C@@H](C)O)C(C)C)[C@@H](C)O` [compound 306] (H-KCNTSTCTVAWLADQITQFSNKDKAQVSPPTEVGPNS[Hyp]-NH2; disulfide 2-7; N-terminus assumed), for which the pEC50 in data set [1] was 11.52; in data set [2], less than 5.30. Also, the “Max ThT signal (%)” value in data set [3] is 3.000%.

The record behind these values is patent US12139520B2 (priority 2020, dated 2024).
